Patent publication US20260207769A1, “ANTIBODY DRUG CONJUGATES” (YALE UNIVERSITY, priority 2022, published 2026)

Experiments:
[1] = test system: WT DLD-1 colorectal adenocarcinoma cells; test: Cell viability assay in WT DLD-1 cells; type: cell-based, human
Excerpt: (§1) Cancer cell lines were acquired from ATCC and cultured according to well known methods in the art. Treatment with cytotoxic agents, antibodies, or ADCs refers to the addition of the cytotoxic agent, antibody or ADC (i.e., DM1 or cD31N-DM1, etc.) to the culture media for a set duration.
BRCA2 deficient (BRCA2′) cells are more sensitive to DM1 because BRCA2 participates in DNA double-stranded break (DSB) repair.
The viability assay protocol is set forth in Example 3.

[2] = test system: PEO-1 (BRCA2^−/−) ovarian adenocarcinoma cells; test: Cell viability of PEO-1 cells; type: cell-based; details: PEO-1 (BRCA2-/-) cells, at 7 days
Excerpt: as §1
The effects of longer-term treatment with SN38 and cD31N-SN38 on PEO-4 (WT) and PEO-1 (BRCA2^−/−) ovarian cancer cells were investigated.

[3] = test system: DNA damage response proteins such as γH2AX, p-ATM, and p-ATR; test: Western blot of DNA damage response proteins in WT DLD-1 cells; type: cell-based, human
Description: (§2) SN38 causes DNA damage via inhibition of topoisomerase I. Therefore, DNA damage was measured in both wild-type (WT) and BRCA2 deficient (BRCA2′) DLD-1 cells by induction of γH2AX after treatment with one of the following: no treatment (NT), SN38 alone (SN38), wild-type 3E10 antibody alone (cWT), 3E10-cD31N antibody alone, cWT-SN38 conjugate, or cD31N-SN38 conjugate. After treatment with 100 nM of the antibody or conjugate for 48 hours, the DLD-1 cells were collected for Western blot analysis to measure 7H2AX protein levels. […] These findings were consistent in both WT and BRCA2^−/− DLD-1 cells, but γH2AX protein levels were elevated across all groups in BRCA2^−/− DLD-1 cells.
(§3) DNA damage caused by SN38 or 3E10-SN38 conjugates in WT and BRCA2^−/− DLD-1 cells was assessed by measuring the levels of proteins involved in DNA damage response, p-ATM, p-ATR, pBRCA1, Topoisomerase 1 (TOPO-1), pChk2, pChk1, γH2AX and H2AX. DLD-1 cells were treated with 100 nM of SN38, cWT antibody, cD31N antibody, cWT-SN38 conjugate, or cD31N-SN38 conjugate and collected for Western blot after 24 (FIG. 21A) and 48 hours (FIG. 21B). No treatment (NT) was used as control.

[4] = test system: DNA damage response proteins such as γH2AX, p-ATM, and p-ATR; test: Western blot of DNA damage response proteins in BRCA2-/- DLD-1 cells; type: cell-based, human
Description: as §2, §3

WT DLD-1 cells = test: Clonogenic assay in WT DLD-1 cells; type: cell-based, human; details: WT DLD-1, after 7 days
Description: (§4) Clonogenic or colony formation assays are in vitro assays that can measure the survival or growth of cells on a single-cell level based on the ability of a single cell to grow into a colony. WT or BRCA2^−/− DLD-1 cells were plated with different concentrations of SN38, 3E10 antibody, or 3E10-SN38 conjugate added into the clonogenic assay media. After 7 days for WT cells or 10 days for BRCA2^−/− cells, colony numbers were counted to quantify DLD-1 cell survival. […] Consistent with earlier results, DLD-1 cell survival was concentration-dependent.

[5] = test system: DNA damage response proteins, such as 7H2AX, p-ATM, and p-ATR; test: Western blot of DNA damage response proteins in DLD-1 cells after 96 hours; type: cell-based, human; details: 100 nM
Description: To measure the expression of DNA damage response proteins at a later time point, DLD-1 cells were treated with 100 nM of SN38, cD31N antibody, or cD31N-SN38 conjugate and collected for Western blot after 96 hours (4 days). Results at the 96 hour time point were consistent with the 24 and 48 hour results.

HCT116- IDH1^mut cells = test: Cell viability of HCT116-IDH1mut cells; type: cell-based
Description: WT and mutant IDH1 (IDH1^mut) HCT116 cells were treated with different concentrations of SN38, cD31N antibody, or cD31N-SN38 conjugate. The effects of 3E10-cD31N-SN38 conjugate treatment on HCT116 WT and HCT116IDH1^mut were investigated.

WT HCT116 cells = test: Clonogenic assay in WT HCT116 cells; type: cell-based
Description: as §4
(§5) The effects of treatment with SN38 or 3E10-SN38 conjugates on HCT116 cells were tested in clonogenic assays as previously described. WT and IDH1^mut HCT116 cells were treated with SN38, cD31N antibody, or cD31N-SN38 conjugate. Cell survival of WT (FIG. 25A) and IDH1^mut HCT116 cells (FIG. 25B) was quantified after 7 days for WT cells or 10 days for […].

HCT116-IDH1^mut cells = test: Clonogenic assay in HCT116-IDH1mut cells; type: cell-based; details: after 10 days
Description: as §4, §5

[6] = test system: DNA damage response proteins such as γH2AX, p-ATM, and p-ATR; test: Western blot of DNA damage response proteins in WT HCT116 cells; type: cell-based; details: WT HCT116, 100 nM, 24 hours
Description: (§6) DNA damage induced by SN38 or the humanized 3E10-SN38 conjugates in WT and IDH1^mut HCT116 cells was assessed by measuring the levels of proteins involved in DNA damage response, p-ATM, p-ATR, pChk2, pChk1, 7H2AX and H2AX. HCT116 cells were treated with 100 nM of SN38, V66 antibody, or V66-SN38 conjugate and collected for Western blot after 24 hours and the results are shown in FIG. 26. No treatment (NT) was used as control.

[7] = test system: DNA damage response proteins such as γH2AX, p-ATM, and p-ATR; test: Western blot of DNA damage response proteins in IDH1mut HCT116 cells; type: cell-based; details: IDH1mut HCT116, 100 nM, 24 hours
Description: as §6

[8] = test system: DNA damage response proteins; test: Western blot of DNA damage response proteins in PEO-1 cells; type: cell-based; details: 100 nM, 24 and 48 hours
Description: PEO-4 (WT) and PEO-1 (BRCA2^−/−) ovarian cancer cells were treated with 100 nM of SN38, cD31N or cD31N-SN38 and collected at 24 and 48 hours of treatment for Western blot analysis to measure specific protein markers of DNA damage response as previously described.

For `CCc1c2c(nc3ccc(O)cc13)-c1cc3c(c(=O)n1C2)COC(=O)[C@]3(O)CC` [SN38, SN-38], the EC50 [1] was 6.26 nM, the cell viability [2] was “reduced cell viability in a concentration-dependent manner resulting in low EC50 values” and the “protein levels of DNA damage response proteins” value ([3]; WT DLD-1, 100 nM, 24 and 48 hour time points) was “increased the protein levels of DNA damage response proteins such as γH2AX, p-ATM, and p-ATR”. The TOPO-1 levels ([3]; WT DLD-1, 100 nM, 24 and 48 hours) was “reduced TOPO-1 levels”, the “γH2AX induction (Western blot)” value ([3]; WT DLD-1, 100 nM, 24 hours (Example 10)) was 7H2AX was induced and the “γH2AX detection (Western blot)” value ([3]; WT DLD-1, 100 nM, 48 hours (Example 10)) was 7H2AX was detected. The “γH2AX protein levels (Western blot)” value ([3]; WT DLD-1 cells, 100 nM, 48 hours (Example 5)) was “induced the highest levels of γH2AX expression”, the “protein levels of DNA damage response proteins” value ([4]; BRCA2-/- DLD-1, 100 nM, 24 and 48 hour time points) was “increased the protein levels of DNA damage response proteins such as γH2AX, p-ATM, and p-ATR” and the TOPO-1 levels ([4]; BRCA2-/- DLD-1, 100 nM, 24 and 48 hours) was “reduced TOPO-1 levels”. For the same molecule, the “γH2AX induction (Western blot)” value ([4]; BRCA2-/- DLD-1, 100 nM, 24 hours (Example 10)) was 7H2AX was induced, the “γH2AX protein levels (Western blot)” value ([4]; BRCA2-/- DLD-1 cells, 100 nM, 48 hours (Example 5)) was “induced the highest levels of γH2AX expression” and the “cell survival (colony numbers)” value (WT DLD-1 cells) was “reduced cell survival”. The TOPO-1 levels [5] was “TOPO-1 levels were also reduced”, the “expression of DNA damage response proteins” value [5] was “increased expression of DNA damage response proteins” and the cell viability (HCT116- IDH1^mut cells; 5 days of treatment) was “substantial loss in cell viability”. For the same molecule, the cell viability (HCT116- IDH1^mut cells; 7 days of treatment) was “substantial loss in cell viability”, the survival fraction (WT HCT116 cells; 1 nM) was 0% and the “cell survival (clonogenic)” value (WT HCT116 cells; after 7 days) was “low levels of cell survival in a concentration-dependent manner”. The “cell survival (clonogenic)” value (HCT116-IDH1^mut cells) was “low levels of cell survival”, the “protein levels of DNA damage response proteins” value [6] was “increased the protein levels of DNA damage response proteins such as γH2AX, p-ATM, and p-ATR” and the “protein levels of DNA damage response proteins” value [7] was “increased the protein levels of DNA damage response proteins such as γH2AX, p-ATM, and p-ATR”. For the same molecule, the “protein expression of DNA damage response proteins” value [8] was “protein expression of DNA damage response proteins was increased”.
